Where two headings read alike, the source gives them in different places.
Legend:
[1] = test system: MCF-7 cells; assay: Lactate dehydrogenase (LDH) assay for cytotoxicity; format: cell-based; settings: Homo sapiens, MCF7; MCF-7, compound concentration 10 μM, 24 h; read-out: Lactate Dehydrogenase assay: % cell lysis (cell death)
Experimental: The toxicity and selectivity of 10n towards normal cells was investigated in the non-tumourigenic cell line HEK-293T (normal human epithelial embryonic kidney cells). […] The cytotoxic effect of selected 3-chloro-β-lactams 10e, 10f, 10i, 10n and 3,3-dichloro-β-lactams 11e and 11n in MCF-7 cells was initially determined using the lactate dehydrogenase (LDH) assay.
The cytotoxicity of selected compounds was determined using the CytoTox 96 non-radioactive cytotoxicity assay (Promega Corporation, Madison, WI, USA). Briefly, MCF-7 cells were seeded in a 96-well plate (200 μL per well), at a density of 2.5 × 10^4 cells/mL, and incubated for 24 h. The cells were then treated with selected β-lactam compounds as described above for the cell viability assay. […] Supernatant (50 μL) was removed from each well to a 96-well plate. Reconstituted ‘CytoTox 96® Reagent (50 μL) was added to each well and the plate was placed in the dark at 20 °C for 30 min. ‘Stop solution’ (50 μL) was added to each well and the samples were analysed at 490 nm using a Dynatech MR5000 plate reader. The percentage cell death at 10 μM was calculated.

[2] = test system: MDA-MB-231 cells; assay: Cell viability assay, antiproliferative activity; format: cell-based; settings: Homo sapiens; MDA-MB-231, 72 h; 10e and 11n results from NCI; read-out: Antiproliferative Activity IC50 MDA-MB-231, 72 h
Source text: Selected β-lactam compounds were next evaluated in the triple negative cell line MDA-MB-231 (Table 4). […] These cancers are difficult to treat since they are generally not responsive to hormone therapies such as the selective oestrogen receptor modulator (SERM) tamoxifen, or aromatase inhibitors such as anastrozole, or to the monoclonal antibody Herceptin, which targets the HER2 receptor. There are fewer treatment options available for TNBC compared with ER+, PR+ and HER2+ breast cancers and the prognosis is poorer. […]. The human breast carcinoma cell line MCF-7 was purchased from the European Collection of Animal Cell Cultures (ECACC). Triple negative breast cancer Hs578T cells and its invasive variant Hs578Ts(i)8 were a kind gift from Dr. Susan McDonnell, School of Chemical and Bioprocess Engineering, University College Dublin. U266 cells were a gift from Dr. Tony McElligott, School of Medicine, St James’s Hospital, Trinity College Dublin. HT-29 cells were purchased from the European Collection of Cell Cultures (originating from a human adenocarcinoma of the colon). The human breast carcinoma cell line MDA-MB-231 and the HL-60 cells derived from a patient with acute myeloid leukaemia were both obtained from ECACC (Salisbury, UK). The SW-480 cells were a kind gift from Dr. Brian Flood, School of Biochemistry and Immunology, Trinity College Dublin. HEK-293T (normal epithelial embryonic kidney cells) were cultured in Dulbecco’s Modified Eagle’s Medium (DMEM) with GlutaMAXTM-I in the absence of non-essential amino acids. Human breast cancer MCF-7 cells and multiple myeloma U266 cells were cultured in Minimum Essential Media (MEM) with GlutaMAX™-I, supplemented with 1% (v/v) non-essential amino acids, 10% 2(v/v) foetal bovine serum (FBS) and 1% (v/v) penicillin/streptomycin 5000 U/mL. MDA-MB-231 cells were maintained in DMEM supplemented with 10% (v/v) foetal bovine serum, 2 mM L-glutamine and 100 μg/mL penicillin/streptomycin (complete medium). Colon cancer HT-29 and SW-480 and triple negative breast cancer Hs578T and its invasive variant Hs578T8i were cultured in DMEM with GlutaMAX™-I, with the same supplement in the absence of non-essential amino acids. Leukaemia HL-60 cancer cells were cultured in Roswell Park Memorial Institute Media (RPMI-1640) with GlutaMAX™-I, supplemented with 10% FCS media, and 100 μg/mL penicillin/streptomycin as above. Cell numbers were monitored using a haemocytometer. Cell culture flasks were incubated in a humidified incubator (5% CO2/95% air) at 37 °C. All cell lines were sub-cultured three times per week with trypsinisation using TrypLE Express (1X) required for adherent cell lines.
(§1) . All stock solutions and serial dilution in ethanol/DMSO were stored at -20 °C. All cells were seeded at a density of 2.5 × 10^4 cells/mL in a 96-well plate (200 μL per well). The cells were incubated in a […] atmosphere at 37 °C for 24 h, then treated with test compound (2 μL of stock solutions per 200-microlitre well) in ethanol to obtain a concentration range of 1 nM–200 μM for the study. The plates were then re-incubated for a further 72 h. Control wells contained an equivalent volume of the vehicle ethanol or DMSO (1% v/v). MTT cell viability assay: The culture medium was removed, and the cells were washed with phosphate buffered saline (PBS, […]). MTT (dissolved in PBS, […]) was added to obtain a final concentration of MTT (1 mg/mL). Cells were incubated at 37 °C for 3 h in the dark. Solubilisation was commenced by the addition of DMSO ([…]) and the cells were maintained at 20 °C in the dark for 20 min before reading the absorbance to ensure complete colour diffusion. The absorbance value of control cells (no added compound) was set to 100% cell viability and absorbance versus cell density per well was determined to assess cell viability using Graph-Pad Prism software. […]

[3] = test system: MCF-7 cells; settings: MCF-7, 72 h; previously reported compounds, footnote g; cited from earlier work
[4] = test system: SW480 cells; assay: Cell viability assay, antiproliferative activity; format: cell-based, human; settings: SW480, 10 μM
Experimental: […]. The corresponding values for 10e in these cell lines were 161 nM (HL-60), 55 nM (SW480) and 135 nM (HT-29). […] […]. SW480 colon cells expressed low levels of the UDP-glucuronosyltransferase (UGT) protein compared to expression levels in HT-29 cells. […] […].
(§2) The human breast carcinoma cell line MCF-7 was purchased from the European Collection of Animal Cell Cultures (ECACC). Triple negative breast cancer Hs578T cells and its invasive variant Hs578Ts(i)8 were a kind gift from Dr. Susan McDonnell, School of Chemical and Bioprocess Engineering, University College Dublin. U266 cells were a gift from Dr. Tony McElligott, School of Medicine, St James’s Hospital, Trinity College Dublin. HT-29 cells were purchased from the European Collection of Cell Cultures (originating from a human adenocarcinoma of the colon). The human breast carcinoma cell line MDA-MB-231 and the HL-60 cells derived from a patient with acute myeloid leukaemia were both obtained from ECACC (Salisbury, UK). The SW-480 cells were a kind gift from Dr. Brian Flood, School of Biochemistry and Immunology, Trinity College Dublin. HEK-293T (normal epithelial embryonic kidney cells) were cultured in Dulbecco’s Modified Eagle’s Medium (DMEM) with GlutaMAXTM-I in the absence of non-essential amino acids. Human breast cancer MCF-7 cells and multiple myeloma U266 cells were cultured in Minimum Essential Media (MEM) with GlutaMAX™-I, supplemented with 1% (v/v) non-essential amino acids, 10% 2(v/v) foetal bovine serum (FBS) and 1% (v/v) penicillin/streptomycin 5000 U/mL. MDA-MB-231 cells were maintained in DMEM supplemented with 10% (v/v) foetal bovine serum, 2 mM L-glutamine and 100 μg/mL penicillin/streptomycin (complete medium). Colon cancer HT-29 and SW-480 and triple negative breast cancer Hs578T and its invasive variant Hs578T8i were cultured in DMEM with GlutaMAX™-I, with the same supplement in the absence of non-essential amino acids. Leukaemia HL-60 cancer cells were cultured in Roswell Park Memorial Institute Media (RPMI-1640) with GlutaMAX™-I, supplemented with 10% FCS media, and 100 μg/mL penicillin/streptomycin as above. Cell numbers were monitored using a haemocytometer. Cell culture flasks were incubated in a humidified incubator (5% CO2/95% air) at 37 °C. All cell lines were sub-cultured three times per week with trypsinisation using TrypLE Express (1X) required for adherent cell lines.
as §1, with “software. AlamarBlue cell viability assay: Cells were seeded in 96-well plates (e.g., MCF-7, 5 × 10^3 cells/well) and (HT-29 cells, 1 × 10^3 cells/well) and (HL-60 cells, 1 × 10^4 cells/well) with a total volume per well of 200 µL. After 24 h, cells were treated in triplicate with serial dilutions of CA-4 or β-lactam analogues (0.001–100 μM), medium alone or vehicle (1% ethanol (v/v)).” for “software.”

[5] = test system: MCF-7 cells; assay: Cell viability assay (MTT/AlamarBlue), antiproliferative activity; format: cell-based, human
Source text: […]. The introduction of the halogen substituent at C-3 was examined in an effort to investigate the effect on the activity of this substituent, and subsequently optimising the cytotoxic effects against MCF-7 human breast cancer cells.
as §2
as §1, with “software. AlamarBlue cell viability assay: Cells were seeded in 96-well plates (e.g., MCF-7, 5 × 10^3 cells/well) and (HT-29 cells, 1 × 10^3 cells/well) and (HL-60 cells, 1 × 10^4 cells/well) with a total volume per well of 200 µL. After 24 h, cells were treated in triplicate with serial dilutions of CA-4 or β-lactam analogues (0.001–100 μM), medium alone or vehicle (1% ethanol (v/v)).” for “software.”

[6] = HPLC stability study in phosphate buffers; format: physicochemical; settings: phosphate buffer
Experimental: HPLC stability studies at three different pH systems were performed on a representative compound 16a to determine the stability at acidic pH 4, pH 7.4 and basic pH 9 (acid pH found in the stomach, basic found in the intestine and pH 7.4 in the plasma).
A stability study for compound 16a was performed by analytical HPLC using a Symmetry® column (C18, […], 4.6 × 150 mm), a Waters 2487 Dual Wavelength Absorbance detector, a Waters 1525 binary HPLC pump and a Waters 717 plus Autosampler (Waters Corporation, Milford, MA, USA). Samples were detected at λ 254 nm using acetonitrile (70%)/water (30%) as the mobile phase over 15 min and a flow rate of 1 mL/min. A stock solution of the compound was prepared using 10 mg of compound 16a in 10 mL of mobile phase (1 mg/mL). A calibration curve was prepared using a solution of 0.5, 0.25, 0.125, 0.0625, 0.03125, 0.015625 and 0.0078 mg/mL. (i) Stability of 16a in phosphate buffers: Phosphate buffers at pH values 4, 7.4 and 9 were prepared according to the British Pharmacopoeia 2020. A total of 300 µL of stock solution (1 mg/mL ACN) for 16a was added to a vial containing 9.7 mL of buffer, mixed and pre-heated to 37°C. A total of 1 mL of the solution was added to the HPLC glass vial and 10 µL was injected, followed by hourly injections for a 24-h period. Samples were withdrawn and analysed at time intervals of t = 0 min, 5 min, 30 min, 60 min and hourly for 24 h. The analysis was performed in triplicate. (ii) Thermal stability: 16a (1 mg) was placed in a vial (for the solution, 1 mL of stock solution was used) at 60 °C for 4 h on a heating block. The sample was then cooled, diluted with ACN and analysed using HPLC. (iii) Photostability study: A solution of compound 16a (1 mL of the stock solution) was placed in a vial and exposed to UV light for 4 h. The sample was directly analysed using HPLC. […] Once neutralised, the samples were analysed using HPLC. […] Once neutralised, the samples were analysed using HPLC. […] A sample from the vial was taken every hour over 4 h and analysed using HPLC.

IC50 ([5]; Homo sapiens, MCF7, 72 h, MCF-7, 72 h, read-out: IC50 (MCF-7, 72 h)) | half-life at 0.03 mg/mL ([6]; buffer pH 4, 37°C) | half-life at 0.03 mg/mL ([6]; buffer pH 7.4, 37°C) | half-life at 0.03 mg/mL ([6]; buffer pH 9, 37°C) | Structure (SMILES) | cytotoxicity at 10 µM [1] | IC50 [2] | IC50 [3] | SW480 inhibition of cell viability [4] | fold decrease in activity vs corresponding 3-chloro compound 10e ([5]; MCF-7 IC50 ratio)
– | – | – | – | CCOc1ccc([C@H]2[C@H](Cl)C(=O)N2c2cc(OC)c(OC)c(OC)c2)cc1 (relative stereo) [Compound 10f] | 4% | 78 ± 8 nM | 130 ± 17 nM | – | –
– | – | – | – | COc1ccc(C2N(c3cc(OC)c(OC)c(OC)c3)C(=O)C2(Cl)Cl)cc1 (stereo not drawn) [Compound 11e] | 10% | 297 ± 40 nM | 119 ± 12 nM | – | –
579 ± 30 nM | 18 h | 22 h | 20 h | COc1ccc(C2C(Br)C(=O)N2c2cc(OC)c(OC)c(OC)c2)cc1 (stereo not drawn) [Compound 16a, 3-Bromo-4-(4-methoxyphenyl)-1-(3,4,5-trimethoxyphenyl)azetidin-2-one] | – | – | – | 52% | 17 fold

Source: article PMC8624998, “Synthesis and Antiproliferative Evaluation of 3-Chloroazetidin-2-ones with Antimitotic Activity: Heterocyclic Bridged Analogues of Combretastatin A-4” (Pharmaceuticals, 2021)
